The source of these data is US20090175981A1, “COMPOSITIONS, METHODS AND USES FOR A NOVEL FAMILY OF PEPTIDES” (priority 2004, published 2009).

The subject of assay [1] is A-domain of BT NRPS Module 2 (Bt2A). The assay can be described thus: ATP-PPi exchange assay, Module 2 A-domain. It is filed as biochemical, Brevibacillus texasporus. Particulars: 0.5 mM amino acid. On the procedure:
(§1) Cloning, overexpression, and purification of His10-tagged BT A-domain proteins. DNA fragments encoding the A-domains of the BT NRPS Modules 8, 5, 7, 4 and 2 (Bt8A, 8t5A, Bt7A, Bt4A and Bt2A) were PCR-amplified and the PCR products were inserted into the His10-tag recombinant protein expression vector pET16b (Novagen). The A-domain borders were determined as defined by (Konz, et al., 1999). The expression constructs were transformed into the E. coli BL21-AI strain (Invitrogen). Transformants were grown in L-broth at 37° C. to an A600 of 0.6 and then induced with 1 mM IPTG (isopropyl-β-D-thiogalactopyranoside) plus 0.2% L-arabinose. The cells were allowed to grow for two additional hours at 30° C. before being harvested. Purification of the His10-tag recombinant proteins was achieved using the TALON metal affinity resins (BD Biosciences) under conditions recommended in the manual with modifications. Briefly, the E. coli cells were broken by sonication. Cell lysates were cleared by centrifugation at 25,000×g for one hour. His-tagged recombinant proteins were then incubated with the TALON resin, washed, and eluted with 500 mM imidazole. Eluted proteins were dialyzed against a buffer (50 mM HEPES, pH 8.0, 100 mM sodium chloride, 10 mM magnesium chloride, and 1 mM EDTA) and then analyzed with SDS PAGE plus Coomassie Blue staining. […] Concentrations of the purified proteins were determined by using the calculated molar extinction coefficient for the A280.
(§2) ATP-PPi exchange assay. ATP-PPi exchange assays were performed to determine the substrate specificity of an A-domain. ATP-PPi exchanges were assayed as previously described (Stachelhaus, et al., 1998) with minor modifications. The assay mixture contained 50 mM HEPES (pH 8.0), 100 mM NaCl, 10 mM MgCl2, 2 mM ATP, 0.5 mM amino acid, 0.05 mM PPi, 0.15 μCi tetrasodium [^32P]pyrophosphate. Exchange was initiated by addition of purified recombinant A-domain proteins to a total volume of 0.1 ml. The protein concentrations were 0.2 μM for Module 4 and Module 5 A-domains while 2 μM for Module 7 and Module 8 A-domains. After incubation at 37° C. for 15 min, the reaction was stopped by addition of 0.5 ml of Terminaton Mix (100 mM tetrasodium pyrophosphate, 3.5% HClO4, and 1.6% [w/v] activated charcoal). The charcoal was pelleted by centrifugation, washed first with 40 mM pyrophosphate plus 1.4% perchloric acid and then with water, and was re-suspended in 0.5 ml of water. The charcoal/water suspension was added to a scintillation vial containing 5.0 ml of scintillation fluid, and the bound radioactivity was determined by liquid scintillation counting. The apparent Km values were determined with substrate concentrations ranging from 0.1 to 10 mM.
(§3) Since a purified recombinant A-domain of an NRPS module can selectively and efficiently activate the cognate amino acid substrate of the NRPS module in an ATP-PPi exchange assay (Konz, et al., 1999; Mootz & Marahiel, 1997), ATP-PPi exchange assays have been used to experimentally establish NRPS module specificities and novel NRPS codons. Recombinant A-domains of Modules 8, 5, 7, 4 and 2 of the BT NRPS were produced and purified as described in Methods and Materials. Almost completely soluble recombinant A-domain proteins were obtained. A-domain specificities were determined in ATP-PPi exchange and aa Km assays (see Methods and Materials), and the results are shown in FIG. 5. […]

In assay [2] the target is A-domain of BT NRPS Module 8 (Bt8A) (Brevibacillus texasporus, UniProt Q2VQ14). The assay can be described thus: ATP-PPi exchange assay, Module 8 A-domain. It is filed as biochemical. Particulars: for relative activation (highest activity = 100%): 0.5 mM amino acid. On the procedure:
as §1
(§4) ATP-PPi exchange assay. ATP-PPi exchange assays were performed to determine the substrate specificity of an A-domain. ATP-PPi exchanges were assayed as previously described (Stachelhaus, et al., 1998) with minor modifications. The assay mixture contained 50 mM HEPES (pH 8.0), 100 mM NaCl, 10 mM MgCl2, 2 mM ATP, 0.5 mM amino acid, 0.05 mM PPi, 0.15 μCi tetrasodium [^32P]pyrophosphate. Exchange was initiated by addition of purified recombinant A-domain proteins to a total volume of 0.1 ml. The protein concentrations were 0.2 μM for Module 4 and Module 5 A-domains while 2 μM for Module 7 and Module 8 A-domains. […] The charcoal/water suspension was added to a scintillation vial containing 5.0 ml of scintillation fluid, and the bound radioactivity was determined by liquid scintillation counting. […]
(§5) Since a purified recombinant A-domain of an NRPS module can selectively and efficiently activate the cognate amino acid substrate of the NRPS module in an ATP-PPi exchange assay (Konz, et al., 1999; Mootz & Marahiel, 1997), ATP-PPi exchange assays have been used to experimentally establish NRPS module specificities and novel NRPS codons. […] A-domain specificities were determined in ATP-PPi exchange and aa Km assays (see Methods and Materials), and the results are shown in FIG. 5. […]

For assay [3], the target named is A-domain of BT NRPS Module 5 (Brevibacillus texasporus, UniProt Q2VQ15). The assay can be described thus: ATP-PPi exchange assay, Module 5 A-domain. Type of assay: biochemical. As to conditions: for relative activation (highest activity = 100%): 0.5 mM amino acid; for Km: read-out: apparent Km. On the procedure: as §1, §2, §3
Chain of A-domain of BT NRPS Module 5 (Q2VQ15 entry or part of it): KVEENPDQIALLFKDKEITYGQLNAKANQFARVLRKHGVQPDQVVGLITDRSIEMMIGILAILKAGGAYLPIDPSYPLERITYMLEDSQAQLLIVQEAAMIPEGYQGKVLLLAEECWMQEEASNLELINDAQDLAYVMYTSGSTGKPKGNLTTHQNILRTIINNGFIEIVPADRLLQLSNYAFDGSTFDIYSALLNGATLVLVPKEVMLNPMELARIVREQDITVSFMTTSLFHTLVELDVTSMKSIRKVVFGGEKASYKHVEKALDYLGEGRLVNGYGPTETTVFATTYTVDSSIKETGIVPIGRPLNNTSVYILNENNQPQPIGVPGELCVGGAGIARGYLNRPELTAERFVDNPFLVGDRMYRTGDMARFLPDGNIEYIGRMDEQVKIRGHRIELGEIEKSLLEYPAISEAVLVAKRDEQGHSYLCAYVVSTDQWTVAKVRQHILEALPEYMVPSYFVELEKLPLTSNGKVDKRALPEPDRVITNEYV
For assay [4], the target named is A-domain of BT NRPS Module 4 (Bt4A) (Brevibacillus texasporus, UniProt Q2VQ15). The assay can be described thus: ATP-PPi exchange assay, Module 4 A-domain. It is filed as biochemical. As to conditions: for relative activation (highest activity = 100%): 0.5 mM amino acid. On the procedure: as §1, §4, §5
Chain of A-domain of BT NRPS Module 4 (Bt4A) (Q2VQ15 entry or part of it): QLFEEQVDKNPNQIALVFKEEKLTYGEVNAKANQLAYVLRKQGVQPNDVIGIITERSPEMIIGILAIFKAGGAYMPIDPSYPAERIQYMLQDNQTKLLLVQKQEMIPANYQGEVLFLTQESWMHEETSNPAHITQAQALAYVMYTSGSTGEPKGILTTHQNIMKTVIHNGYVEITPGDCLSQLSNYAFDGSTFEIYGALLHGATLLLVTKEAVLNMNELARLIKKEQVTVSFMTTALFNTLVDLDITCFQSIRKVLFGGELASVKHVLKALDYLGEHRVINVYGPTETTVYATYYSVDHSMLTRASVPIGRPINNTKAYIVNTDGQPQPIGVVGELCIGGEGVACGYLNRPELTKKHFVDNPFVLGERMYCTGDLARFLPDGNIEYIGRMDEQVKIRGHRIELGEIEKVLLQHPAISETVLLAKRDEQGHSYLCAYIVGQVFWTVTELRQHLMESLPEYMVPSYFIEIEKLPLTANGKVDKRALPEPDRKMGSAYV
The target in assay [5] is A-domain of BT NRPS Module 7 (Bt7A) (Brevibacillus texasporus, UniProt Q2VQ15). The assay can be described thus: ATP-PPi exchange assay, Module 7 A-domain. It is filed as biochemical. As to conditions: 0.5 mM amino acid.
Chain of A-domain of BT NRPS Module 7 (Bt7A) (Q2VQ15 entry or part of it): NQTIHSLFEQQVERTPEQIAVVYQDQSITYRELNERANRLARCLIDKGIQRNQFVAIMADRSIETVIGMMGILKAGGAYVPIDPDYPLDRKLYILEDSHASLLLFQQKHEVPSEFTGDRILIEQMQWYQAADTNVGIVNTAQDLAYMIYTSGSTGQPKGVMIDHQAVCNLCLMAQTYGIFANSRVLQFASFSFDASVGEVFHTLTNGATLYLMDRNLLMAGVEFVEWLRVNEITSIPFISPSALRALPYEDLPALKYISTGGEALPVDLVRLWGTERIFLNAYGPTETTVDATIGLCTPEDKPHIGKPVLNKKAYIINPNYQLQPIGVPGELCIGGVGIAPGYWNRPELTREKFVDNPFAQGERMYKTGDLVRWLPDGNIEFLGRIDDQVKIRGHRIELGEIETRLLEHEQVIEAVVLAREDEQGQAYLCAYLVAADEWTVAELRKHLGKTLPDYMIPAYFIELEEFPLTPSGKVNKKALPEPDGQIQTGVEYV
Another assay relates to straight run broilers. The assay can be described thus: Growth and feed conversion of 3-wk old broilers in batteries, pelleted starter feed (Studies 3-1 and 3-2). Type of assay: in vivo, chicken. Particulars: BT1583 12 ppm, BMD 50 ppm, COB 90 ppm, alone or combined, pelleted feed. From the text: Eight (8) study repetitions per treatment were used, again with 4 birds per pen.

The next assay deals with broiler chickens. The assay can be described thus: 42-day broiler floor pen trial with natural colibacillosis challenge. Type of assay: in vivo, chicken. Particulars: for Day 42 Feed/Gain / Day 42 Gain/Bird / Day 42 Mortality (%) / Day 42 Adjusted Feed/Gain: MON 99 ppm, BT1583 12 ppm, BMD 55 ppm; for Day 42 Feed/Gain / Day 42 Gain/Bird: alone or combined; for Day 42 Mortality (%): acute and chronic colibacillosis; for Day 42 Adjusted Feed/Gain: adjusted for weight of mortality. The method, then:
A broiler floor pen trial to compare the performance of a new anti-microbial designated for this project as BT1583 alone and in combination with the widely used coccidiostat monensin (MON) to MON fed alone, MON in combination with the also widely used antimicrobial Bacitracin MD (BMD) and BMD alone.
The following levels of each treatment were evaluated:
The study design included 10 pens per treatment and 40 birds per pen housed on day of hatch. Two basal corn-soy based diets of decreasing protein (approximately 23 to 20%) and increasing metabolizable energy (approximately 1400 to 1455 kcal/lb) were used from Day 0 to 21 (starter feed) and Days 22 to 42 (grower feed), respectively. Treatment premixes were measured and blended into diets at required levels. Between days 0 and 21 mortality was less than 1% with all birds growing optimally and of high health across all groups.
Beginning on study day 22, the study director modulated house temperature and air flow to mimic industry conditions conducive to outbreaks of colibacillosis within naïve broiler flocks. This was done to stimulate a natural challenge for this study. Mortality climbed to a house average of approximately 10% by Day 42. A majority of these deaths occurred in groups not receiving BT1583 or MON. Lesions were consistent with those of colibacillosis (air sac, pneumonia, peri-hepatitis, peri-carditis and extreme morbidity). All mortality was documented (weight at death and post-mortem observations). All birds and feeds were weighed at 42 days. All remaining birds were euthanized on Day 42 by asphyxiation with the carcasses submitted for rendering.
The following variables were tested: Response Variables: Gain Per Bird, Feed Per Gain, Mortality (%), Adjusted Feed Per Gain. F test from One Way ANOVA with one blocking factor=location, at Day 42 using 0.05 level of significance.
All Response Variables: LSD T-test procedure for pair-wise comparisons with Type 1 error of means when ANOVA F ratio is significant, overall significance level of 0.05 used. Lines below means (see Table 30, below) indicate groups with insignificant differences in means.
Adjusted Feed/Gain: The total weight of mortality in each pen was added to the final live weight, that value reduced by subtracting the initial weight and then dividing that value into the Total feed consumed to calculate the Adjusted Feed/Gain.

Where “and” joins values, the source holds several entries; their conditions need not be identical. Equal values may be shown once. Marks after values point to notes of the source that are not given here.

By Km is commonly meant the concentration of substrate that gives half-maximal velocity.

Chain of A-domain of BT NRPS Module 8 (Bt8A) (Q2VQ14 entry or part of it): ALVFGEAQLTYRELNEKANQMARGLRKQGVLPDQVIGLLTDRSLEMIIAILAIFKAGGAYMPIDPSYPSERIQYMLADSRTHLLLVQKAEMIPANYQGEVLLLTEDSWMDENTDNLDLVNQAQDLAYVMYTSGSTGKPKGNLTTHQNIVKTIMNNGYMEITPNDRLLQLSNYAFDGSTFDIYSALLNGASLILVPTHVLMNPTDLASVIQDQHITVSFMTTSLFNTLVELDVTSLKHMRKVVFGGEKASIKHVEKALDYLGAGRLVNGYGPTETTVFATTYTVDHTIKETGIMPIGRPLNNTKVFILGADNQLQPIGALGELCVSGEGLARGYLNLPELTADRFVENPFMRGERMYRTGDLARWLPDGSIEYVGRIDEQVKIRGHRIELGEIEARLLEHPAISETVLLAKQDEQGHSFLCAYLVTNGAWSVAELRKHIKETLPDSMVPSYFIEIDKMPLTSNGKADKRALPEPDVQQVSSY

With `CC[C@H](C)[C@H](N)C(=O)O` [L-Ile], the “relative activation (highest activity = 100%)” value in assay [1] is listed as 19%; in assay [2] it was 4%; in assay [3], 23%; in assay [4], 100%. Besides, the values for the Km in assay [3] and in assay [4] (read-out: apparent Km) were 2780 µM and 500 µM, respectively.

As to `CC(C)C[C@H](N)C(=O)O` [L-Leu], the “relative activation (highest activity = 100%)” value in assay [1] amounted to 98%; in assay [3] it was 17%; in assay [4], 7%.

Turning to `NCCCC[C@H](N)C(=O)O` [L-Lys], the activation entry in assay [5] is on record as “only amino acid that activated”. Besides, the “relative activation (highest activity = 100%)” value in assay [2] turned out to be 10%.

Take `CSCC[C@H](N)C(=O)O` [L-Met]: the “relative activation (highest activity = 100%)” value in assay [1] was 100%.

As for `N[C@@H](Cc1ccccc1)C(=O)O` [L-Phe], the “relative activation (highest activity = 100%)” value in assay [1] came out at 3.5%.

As for `CC(C)[C@H](N)C(=O)O` [L-Val], the “relative activation (highest activity = 100%)” value in assay [1] amounted to 67%; in assay [2] it was 100%; in assay [3], 100%; in assay [4] it was 9%. Moreover, the Michaelis constant (Km) in assay [2] (read-out: apparent Km) was 2750 µM; in assay [3], 1110 µM.

For the compound `CC[C@@]1([C@@H]2O[C@@H]([C@H]3O[C@@](O)(CO)[C@H](C)C[C@@H]3C)C[C@@H]2C)CC[C@H]([C@]2(C)CC[C@]3(C[C@H](O)[C@@H](C)[C@@H]([C@@H](C)[C@@H](OC)[C@H](C)C(=O)O)O3)O2)O1` [Monensin, monensin], in the assay with straight run broilers, the “20-day cumulative feed conversion rate, Mean” value stood at 1.3712 and the “21-day cumulative feed conversion rate, Estimated Marginal Mean” value is on record as 1.371. Further, the “21-day cumulative weight gain, Mean” value with straight run broilers (listed as COB) was 792.8438 and 792.844. Besides, in the assay on broiler chickens, the “Day 42 Feed/Gain” value is 1.854^b, the “Day 42 Gain/Bird” value is on record as 4.111^bcd lb, the “Day 42 Mortality (%)” value was 8.00^a % and the “Day 42 Adjusted Feed/Gain” value is 1.761^b. For the same compound, in the assay with broiler chickens (alone or in combination), the “mortality rate compared with non-supplemented controls” value is reported as “lower mortality rates”.

For the compound Bacitracin MD [BMD, reference compound], in the assay on straight run broilers, the “20-day cumulative feed conversion rate, Mean” value came to 1.3397; the “21-day cumulative feed conversion rate, Estimated Marginal Mean” value is given as 1.340; the “21-day cumulative weight gain, Mean” value was 832.9688 and 832.969. In the assay on broiler chickens, the “Day 42 Feed/Gain” value is 2.147^c, the “Day 42 Gain/Bird” value is 3.971^cd lb, the “Day 42 Mortality (%)” value is recorded as 18.25^bc % and the “Day 42 Adjusted Feed/Gain” value is reported as 1.838^bc.
